For assay [1], the system named is spontaneously hypertensive rat, renal hypertensive rat and deoxycortisone acetate salt hypertensive rat models. The settings on record: cited from earlier work.
The test system of the next assay is Dahl salt-sensitive rats. The settings on record: rat, in vivo; cited from earlier work.
The subject of assay [2] is neointimal formation in rats. The settings on record: cited from earlier work.
The next assay deals with ROCK2 (Homo sapiens (Human), UniProt O75116). Kind of assay: ROCK assay (Caliper LABCHIP peptide phosphorylation). The class given is biochemical. As to conditions: 5 μM ATP, 1.5 μM peptide substrate. The procedure, abridged: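 Human ROCK2 reaction with 5 μM ATP and 1.5 μM FITC-labelled peptide substrate in 20 mM HEPES pH 7.5, 20 mM MgCl2, 4 mM DTT, DMSO <2%; stopped with EDTA. Phosphorylated and unphosphorylated peptide separated by microfluidic mobility shift; IC50 from dose-response curve fit.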
Sequence of ROCK2 (O75116 whole entry, species assumed): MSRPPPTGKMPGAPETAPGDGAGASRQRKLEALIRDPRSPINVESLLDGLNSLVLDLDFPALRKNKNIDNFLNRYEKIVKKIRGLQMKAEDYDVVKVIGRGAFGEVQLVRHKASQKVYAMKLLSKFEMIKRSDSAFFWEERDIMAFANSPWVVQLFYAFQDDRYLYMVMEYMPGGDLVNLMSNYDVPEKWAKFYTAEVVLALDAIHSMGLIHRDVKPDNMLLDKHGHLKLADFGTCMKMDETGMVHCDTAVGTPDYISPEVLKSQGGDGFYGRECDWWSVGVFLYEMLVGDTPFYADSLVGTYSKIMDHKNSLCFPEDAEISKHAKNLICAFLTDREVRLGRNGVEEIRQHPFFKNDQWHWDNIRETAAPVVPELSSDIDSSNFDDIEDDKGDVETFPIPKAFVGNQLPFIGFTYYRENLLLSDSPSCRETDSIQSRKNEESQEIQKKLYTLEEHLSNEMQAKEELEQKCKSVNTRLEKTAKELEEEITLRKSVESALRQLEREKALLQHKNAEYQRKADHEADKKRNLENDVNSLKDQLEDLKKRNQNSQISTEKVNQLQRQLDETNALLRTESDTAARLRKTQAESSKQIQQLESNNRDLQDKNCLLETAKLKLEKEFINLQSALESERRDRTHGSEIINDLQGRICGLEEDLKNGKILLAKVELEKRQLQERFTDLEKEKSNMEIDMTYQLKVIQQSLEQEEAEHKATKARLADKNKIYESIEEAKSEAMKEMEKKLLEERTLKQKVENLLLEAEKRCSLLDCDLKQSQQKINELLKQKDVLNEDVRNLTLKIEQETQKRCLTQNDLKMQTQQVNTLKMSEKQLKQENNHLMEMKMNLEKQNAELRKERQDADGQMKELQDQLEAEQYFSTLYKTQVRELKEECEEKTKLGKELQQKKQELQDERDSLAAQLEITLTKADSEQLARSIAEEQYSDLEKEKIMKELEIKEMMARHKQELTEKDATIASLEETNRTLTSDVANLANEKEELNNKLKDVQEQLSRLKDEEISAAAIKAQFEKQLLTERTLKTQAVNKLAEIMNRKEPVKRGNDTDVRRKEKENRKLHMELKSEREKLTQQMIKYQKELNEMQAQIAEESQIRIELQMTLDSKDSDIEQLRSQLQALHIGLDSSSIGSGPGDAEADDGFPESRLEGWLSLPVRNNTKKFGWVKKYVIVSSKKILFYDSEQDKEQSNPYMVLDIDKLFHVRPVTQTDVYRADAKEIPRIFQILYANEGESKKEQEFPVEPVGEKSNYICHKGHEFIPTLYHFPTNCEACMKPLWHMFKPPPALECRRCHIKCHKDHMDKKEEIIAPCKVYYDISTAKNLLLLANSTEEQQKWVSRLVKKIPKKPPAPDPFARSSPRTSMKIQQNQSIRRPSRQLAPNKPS

Assay [3] has as its system IL-1 beta-induced coronary stenosis. As to conditions: long term treatment; cited from earlier work.

As for `C[C@@H](N)[C@H]1CC[C@H](C(=O)Nc2ccncc2)CC1` [Example Y-27632, Y-27632], the “blood pressure in control rats” value in assay [1] (control rats) is “only a minor effect on blood pressure”. The blood pressure entry in assay [1] (three rat models of hypertension) is recorded as “significantly decrease blood pressure”. In the assay with Dahl salt-sensitive rats, the “ventricular hypertrophy, fibrosis and function” value was “improve ventricular hypertrophy, fibrosis and function”. Also, in assay [2], the neointimal formation entry is on record as “inhibited neointimal formation”.

At ROCK2, `NC(=O)c1cccnc1O[C@H]1C[C@]2(C1)C[C@H](N1C(=O)NC(CC3CCN(C(=O)OCc4ccccc4)CC3)C1=O)C2` (some centres unmarked) [Example 98, 2-(((αR)-6-(2,5-dioxo-4-(N-benzyloxycarbonyl-piperidin-4-ylmethyl)imidazolidin-1-yl)spiro[3.3]heptan-2-yl)oxy)nicotinamide] yielded an IC50 of 52 nM. In other words, the double-digit nanomolar range.

In turn, `CC[C@H](C)[C@@H]1NC(=O)N([C@H]2C[C@@]3(C[C@H](Oc4ncccc4C(N)=O)C3)C2)C1=O` (stereo partly drawn) [Example 27, 2-{[(αR)-6-[(4S)-4-[(2S)-butan-2-yl]-2,5-dioxoimidazol-idin-1-yl]spiro-[3.3]heptan-2-yl]-oxy}pyridine-3-carboxamide] came in with an IC50 against ROCK2 of 45 nM.

Molecule `CC(C[C@H]1NC(=O)N([C@H]2C[C@@]3(C[C@H](Oc4ncccc4C(N)=O)C3)C2)C1=O)c1ccccc1` (stereo partly drawn) [Example 96, 2-(((αR)-6-((R)-2,5-dioxo-4-(2-phenyl-propyl)imidazolidin-1-yl)spiro[3.3]heptan-2-yl)oxy)nicotinamide] returned an IC50 against ROCK2 of 264 nM.

Turning to `NC(=O)c1cccnc1O[C@H]1C[C@]2(C1)C[C@H](N1C(=O)NC(CCOCC(F)(F)F)C1=O)C2` (single isomer, unassigned) [Example 50, 2-{[(αR)-6-{2,5-dioxo-4-[2-(2,2,2-trifluoroethoxy)-ethyl]imidazolidin-3-yl}spiro[3.3]-heptan-2-yl]oxy}-pyridine-3-carbox-amide], the IC50 against ROCK2 turned out to be 62 nM.

Turning to `CCC(C)CC1NC(=O)N([C@H]2C[C@@]3(C[C@H](Oc4ncccc4C(N)=O)C3)C2)C1=O` (some centres unmarked) [Example 41, 2-{[(αR)-6-[4-(2-methylbutyl)-2,5-dioxoimidazolidin-1-yl]spiro[3.3]-heptan-2-yl]oxy}-pyridine-3-carbox-amide], 19 nM corresponded to half-maximal inhibition at ROCK2 (IC50).

Take `NC(=O)c1cccnc1O[C@H]1C[C@]2(C1)C[C@H](N1C(=O)NC(CC3CC4CCC3CC4)C1=O)C2` (some centres unmarked) [Example 70, 2-{[(αR)-6-[4-({bicyclo[2.2.2]-octan-2-yl}-methyl)-2,5-dioxo-imidazolidin-1-yl]spiro[3.3]-heptan-2-yl]oxy}-pyridine-3-carbox-amide]: on ROCK2, the IC50 is 20 nM.

At ROCK2, `NC(=O)c1cccnc1O[C@H]1C[C@]2(C1)C[C@H](N1C(=O)NC3(CCCC3)C1=O)C2` (some centres unmarked) [Example 8, 2-{[(αR)-6-{2,4-dioxo-1,3-diaza-spiro[4.4]nonan-3-yl}spiro[3.3]-heptan-2-yl]oxy}-pyridme-3-carbox-amide] came in with an IC50 of 190 nM.

`NC(=O)c1cccnc1O[C@H]1C[C@]2(C1)C[C@H](N1C(=O)NC(CC3CCN(C(=O)c4ccccc4)CC3)C1=O)C2` (some centres unmarked) [Example 101, 2-(((αR)-6-(2,5-dioxo-4-(N-benzoylpiperidin-4-ylmethyl)imidazolidin-1-yl)spiro[3.3]heptan-2-yl)oxy)nicotinamide] gave an IC50 against ROCK2 of 146 nM.

`NC(=O)c1cccnc1O[C@H]1C[C@]2(C1)C[C@H](N1C(=O)CN(c3cccc(F)c3)C1=O)C2` (some centres unmarked) [Example 85, 2-(((αR)-6-(3-(3-fluorophenyl)-2,5-dioxoimidazolidin-1-yl)spiro[3.3]heptan-2-yl)oxy)nicotinamide] had an IC50 against ROCK2 of 6 nM.

With `NC(=O)c1cccnc1O[C@H]1C[C@]2(C1)C[C@H](N1C(=O)NC(CCCC(F)(F)F)C1=O)C2` (single isomer, unassigned) [Example 60, 2-{[(αR)-6-[2,5-dioxo-4-(4,4,4-trifluorobutyl)-imidazolidin-1-yl]-spiro[3.3]heptan-2-yl]oxy}pyridine-3-carboxamide], the IC50 against ROCK2 was 311 nM.

Molecule `NC(=O)c1cccnc1O[C@H]1C[C@]2(C1)C[C@H](N1C(=O)NC(CC3CCCC3)C1=O)C2` (some centres unmarked) [Example 45, 2-{[(αR)-6-[4-(cyclopentyl-methyl)-2,5-dioxo-imidazolidin-1-yl]spiro[3.3]-heptan-2-yl]oxy}-pyridine-3-carbox-amide] yielded an IC50 against ROCK2 of 30 nM.

`NC(=O)c1cccnc1O[C@H]1C[C@]2(C1)C[C@H](N1C(=O)NC(CCOCC(F)(F)F)C1=O)C2` (single isomer, unassigned) [Example 61]: it took 378 nM to reach half-maximal inhibition against ROCK2 (IC50). Compared with the last molecule, the IC50 is about 13-fold higher.

On ROCK2, `CC(C[C@@H]1NC(=O)N([C@H]2C[C@@]3(C[C@H](Oc4ncccc4C(N)=O)C3)C2)C1=O)c1ccccc1` (stereo partly drawn) [Example 95, 2-(((αR)-6-((S)-2,5-dioxo-4-(2-phenyl-propyl)imidazolidin-1-yl)spiro[3.3]heptan-2-yl)oxy)nicotinamide] registered an IC50 of 6 nM.

Consider `[H][C@]1(Oc2ncccc2C(N)=O)C[C@@]2(C[C@H](N3C(=O)C[C@H](CCc4ccccc4)NC3=O)C2)C1` (some centres unmarked) [Example 74], for which the IC50 at ROCK2 was found to be 75 nM.

As for `NC(=O)c1cccnc1O[C@H]1C[C@]2(C1)C[C@H](N1C(=O)C3CCCN3C1=O)C2` (some centres unmarked) [Example 23, 2-{[(αR)-6-{1,3-dioxo-hexahydro-1H-pyrrolo[1,2-c]imidazolidin-2-yl}spiro[3.3]-heptan-2-yl]oxy}-pyridine-3-carbox-amide], the IC50 against ROCK2 was 2020 nM.

Molecule `CC(C)CN1CC(=O)N([C@H]2C[C@@]3(C[C@H](Oc4ncccc4C(N)=O)C3)C2)C1=O` (some centres unmarked) [Example 13, 2-{[(αR)-6-[3-(2-methylpropyl)-2,5-dioxoimidazol-idin-1-yl]spiro-[3.3]heptan-2-yl]-oxy}pyridine-3-carboxamide] came in with an IC50 against ROCK2 of 515 nM. Against the preceding molecule, the IC50 is about 3.9-fold lower.

In the case of `O=S(=O)(c1cccc2cnccc12)N1CCCNCC1` [fasudil], in assay [3], the coronary constrictive remodeling result was “promote a regression of coronary constrictive remodeling” and the coronary stenosis entry is listed as “progressively reduce coronary stenosis”.

The molecule `CC(C)(CC1NC(=O)N([C@H]2C[C@@]3(C[C@H](Oc4ncccc4C(N)=O)C3)C2)C1=O)c1ccccc1` (some centres unmarked) [Example 94, 2-(((αR)-6-(2,5-dioxo-4-(2-phenyl-2-methylpropyl)imidazolidin-1-yl)spiro[3.3]heptan-2-yl)oxy)nicotinamide] registered an IC50 on ROCK2 of 27 nM.
